{"source": "patent US11590117B2", "about": "“Treatment of a hematologic malignancy with 2-(4-chlorophenyl)-n-((2-(2,6-dioxopiperidin-3-yl)-1-oxoisoindolin-5-yl)methyl)-2,2-difluoroacetamide” (priority 2016, dated 2023)", "assay_in_all_cases": "IncuCyte live cell imaging of cell viability, Red-labeled cell line", "assay_type_in_all_cases": "cell-based", "key": {"HL-60": {"system": "HL-60", "details": "Homo sapiens, Red-labeled HL-60, read-out: Inhibition of Cell Viability EC50", "protocol": "(§1) Derivation of Red-labeled Acute Myeloid Leukemia Cell Lines: Twelve cell lines, including AML-193, HL-60, KG-1, ML-2, MOLM-13, MV-4-11, NOMO-1, OCI-AML2, OCI-AML3, SIG-M5, TF-1, and THP-1, were stably transduced with Red lentivirus. Cells were plated in 6-well plates in growth media, incubated with 8 µg/mL polybrene (EMD Millipore Cat no. TR-1003-G) followed by infection with CellPlayer™ NucLight™ Red-lentiviral particles (Essen Biosciences Cat no. 4478) at a multiplicity of infectivity (MOI) of 0.5 to 2.5 for 24 hours. MOI refers to the ratio of virus particles to cells. Virus-containing media was replaced with fresh growth media and incubated for an additional 24 to 48 hours, followed by selection with Zeocin (500 to 2000 μg/mL), a derivative of bleomycin (Life Technologies-Invitrogen Cat no. R250-01). Cells were selected with fresh Zeocin every 3 to 4 days for 3 to 8 weeks. Cells were periodically viewed using fluorescent microscopy for nuclear-restricted red fluorescence. Zeocin selection was terminated once the population was confirmed to stably fluoresce red. All Red-labeled cell lines were acclimated to EMEM containing 20% FBS, with or without GM-CSF supplementation, allowing for optimal live cell imaging.\n(§2) Incubation of Cell Cultures with Compound 1: Compound 1 was provided for studies by Celgene chemistry group at a stock concentration of 30 mM in 20 μL dimethyl sulfoxide (DMSO) frozen. Costar 96-well cell culture plates (Corning Cat no. 3595) were coated with 100 μL of 10 µg/mL fibronectin (Sigma-Aldrich Cat no. F1141) for 4 hours at 37° C. and immediately used or refrigerated overnight for later use. Cells (3000 to 6000 cells) were plated in growth medi in fibronectin-coated 96-well plates and incubated for a minimum of a few hours to overnight. Cells were incubated with a 12-point concentration response in triplicate with Compound 1 ([…]) including DMSO and Media controls. A 3-fold serial dilution of Compound 1 starting from a concentration of 200 μM in 0.6% DMSO (diluted in Media) was performed. For most sensitive cell lines, a 3-fold serial dilution of Compound 1 starting from a concentration of 20 μM in 0.6% DMSO (diluted in media) was performed. A volume of 5 μL or 10 μL for each dilution was added to 100 μL or 200 μL cells, respectively (0.3% DMSO final) and incubated for live cell imaging.\n(§3) Live Cell Imaging on IncuCyte Zoom: Following incubation of cells with Compound 1, diluted Caspase 3/7 reagent (Essen Biosciences Cat no. 4440) is added to each well. The Caspase-3/7 reagent couples the activated caspase-3/7 recognition motif (DEVD) to NucView™488, a DNA intercalating dye. The cleavage of substrate by activated caspase-3/7 results in the release of the DNA dye and green fluorescent staining of nuclear DNA. This allows imaging of cells undergoing caspase-3/7 mediated apoptosis over time. Caspase-3/7 activation was quantified using the IncuCyte™ ZOOM basic analyzer. Red-labeled cell lines were also imaged over time using the IncuCyte™ ZOOM basic analyzer, for determination of both cell doubling time and Compound 1 effect on cell viability. Experiments were performed at least two times in each cell line.\n(§4) Next, a 4 parameter log-logistic model was used to determine relative EC50 at each time point by the ‘drm’ function from the R ‘drc’ package (Ritz C, Streibig J C. Bioassay Analysis using R. J. Statist. Software 2005; 12(5):1-22). Goodness of fit was measured by R squared (coefficient of determination or the amount of variation explained by the model fit) of ≥80%, and EC50 parameter was assessed by having a ratio of standard error to the parameter of ≤40%, and the presence of at least one concentration point above and below the reported EC50.\n(§5) Twelve Red-labeled human AML cell lines, established as described above, were incubated with Compound 1 dose range (0 to 10 μM) and Red fluorescence or Object count was imaged over time, as described above. […]"}, "THP-1": {"system": "THP-1", "details": "Homo sapiens; Red-labeled THP-1; 96 hr; read-out: Inhibition of Cell Viability EC50", "protocol": "as §1, §2, §3, §4, §5"}, "OCI-AML3": {"system": "OCI-AML3", "details": "Homo sapiens, read-out: Inhibition of Cell Viability EC50", "protocol": "as §1, §2, §3, §4, §5"}, "SIG-M5": {"system": "SIG-M5", "details": "Homo sapiens, read-out: Inhibition of Cell Viability EC50", "protocol": "as §1, §2, §3, §4, §5"}, "OCI-AML2": {"system": "OCI-AML2", "details": "Homo sapiens, read-out: Inhibition of Cell Viability EC50", "protocol": "as §1, §2, §3, §4, §5"}, "MV4-11": {"system": "MV4-11", "details": "Homo sapiens, Red-labeled MV4-11, read-out: Inhibition of Cell Viability EC50", "protocol": "as §1, §2, §3, §4, §5"}, "Nomo-1": {"system": "Nomo-1", "details": "Homo sapiens, Red-labeled NOMO-1, read-out: Inhibition of Cell Viability EC50", "protocol": "as §1, §2, §3, §4, §5"}, "KG-1": {"system": "KG-1", "details": "Homo sapiens, Red-labeled KG-1, read-out: Inhibition of Cell Viability EC50", "protocol": "as §1, §2, §3, §4, §5"}, "TF-1": {"system": "TF-1", "details": "Homo sapiens, Red-labeled TF-1, read-out: Inhibition of Cell Viability EC50", "protocol": "as §1, §2, §3, §4, §5"}, "ML-2": {"system": "ML-2", "details": "Homo sapiens, Red-labeled ML-2, read-out: Inhibition of Cell Viability EC50", "protocol": "as §1, §2, §3, §4, §5"}}, "note": "Where two headings read alike, the source gives them in different places."}
{"smiles": "O=C1CCC(N2Cc3cc(CNC(=O)C(F)(F)c4ccc(Cl)cc4)ccc3C2=O)C(=O)N1", "note": "(centres unmarked) [Compound 1, 2-(4-chlorophenyl)-N-((2-(2,6-dioxopiperidin-3-yl)-1-oxoisoindolin-5-yl)methyl)-2,2-difluoroacetamide]", "values": [{"measurement": "EC50", "setting": "HL-60; 48 hr", "value": 9, "unit": "nM"}, {"measurement": "EC50", "setting": "HL-60; 72 hr", "value": 7, "unit": "nM"}, {"measurement": "EC50", "setting": "HL-60; 96 hr", "value": 6, "unit": "nM"}, {"measurement": "EC50", "setting": "THP-1", "value": 61, "unit": "nM"}, {"measurement": "EC50", "setting": "OCI-AML3; OCI-AML-3, 72 hr", "value": 180, "unit": "nM"}, {"measurement": "EC50", "setting": "OCI-AML3; OCI-AML-3, 96 hr", "value": 186, "unit": "nM"}, {"measurement": "EC50", "setting": "SIG-M5; 72 hr", "value": 156, "unit": "nM"}, {"measurement": "EC50", "setting": "SIG-M5; 96 hr", "value": 178, "unit": "nM"}, {"measurement": "EC50", "setting": "OCI-AML2; 24 hr", "value": 387, "unit": "nM"}, {"measurement": "EC50", "setting": "OCI-AML2; 48 hr", "value": 83, "unit": "nM"}, {"measurement": "EC50", "setting": "OCI-AML2; 72 hr", "value": 42, "unit": "nM"}, {"measurement": "EC50", "setting": "OCI-AML2; 96 hr", "value": 40, "unit": "nM"}, {"measurement": "EC50", "setting": "MV4-11; 48 hr", "value": 40, "unit": "nM"}, {"measurement": "EC50", "setting": "MV4-11; 72 hr", "value": 27, "unit": "nM"}, {"measurement": "EC50", "setting": "MV4-11; 96 hr", "value": 26, "unit": "nM"}, {"measurement": "EC50", "setting": "Nomo-1; 48 hr", "value": 19, "unit": "nM"}, {"measurement": "EC50", "setting": "Nomo-1; 72 hr", "value": 17, "unit": "nM"}, {"measurement": "EC50", "setting": "Nomo-1; 96 hr", "value": 17, "unit": "nM"}, {"measurement": "EC50", "setting": "KG-1; 48 hr", "value": 7, "unit": "nM"}, {"measurement": "EC50", "setting": "KG-1; 72 hr", "value": 7, "unit": "nM"}, {"measurement": "EC50", "setting": "KG-1; 96 hr", "value": 7, "unit": "nM"}, {"measurement": "EC50", "setting": "TF-1; 48 hr", "value": 30, "unit": "nM"}, {"measurement": "EC50", "setting": "TF-1; 72 hr", "value": 36, "unit": "nM"}, {"measurement": "EC50", "setting": "TF-1; 96 hr", "value": 58, "unit": "nM"}, {"measurement": "EC50", "setting": "ML-2; 72 hr", "value": 4, "unit": "nM"}, {"measurement": "EC50", "setting": "ML-2; 96 hr", "value": 4, "unit": "nM"}]}
